Legend:
[1] = Mass balance/excretion of [14C]-olinciguat in rats; format: in vivo, rat; settings: male Sprague-Dawley rats, single oral dose 3 mg/kg; for equivalents excreted in the feces, percent of administered dose: 3 mg/kg
Experimental: [^14C]-olinciguat, uniformly labeled with [^14C] in the fluorobenzyl ring and having a specific activity of 110 mCi/mmol, was synthesized at American Radiolabeled Chemicals, Inc. (St. Louis, MO). The radiochemical purity was determined to be >99%. Four male Sprague-Dawley rats (approximately 8 weeks old) received a single p.o. dose of 3 mg/kg [^14C]-olinciguat (specific activity 26.6 µCi/mg) in PEG 400:water 60:40 v/v (dosing volume ≤5 ml/kg). Using a single metabolism cage (Nalgene) for each rat, urine and feces were collected for 7 days at 24-h intervals, and cages were rinsed daily. Food was available ad libitum throughout the study, except for the overnight fasting period (16–18 h) before and 4 h after olinciguat administration. Deionized water was available ad libitum. After 7 days, tissues were collected. Urine, feces, liver, kidneys, and cage washes were analyzed to determine material balance.

[2] = Mouse TNFα-induced model of vascular inflammation; format: in vivo; settings: male, C57BL/6, mouse, plasma, po; mice, 10 mg/kg p.o., at euthanasia; read-out: plasma concentration of olinciguat
Experimental: (§1) Male C57BL/6 mice (n=30, 22 g, 8 weeks) were studied. The TNFα/olinciguat group of mice (n=10) was administered 10 mg/kg olinciguat p.o., formulated in 0.1 ml 100% PEG, followed byintraperitoneal (i.p.) injection of 50 ng of mouse TNFα formulated in 0.5 ml pyrogen-free 0.9% NaCl solution one hour later. The TNFα/vehicle control group of mice (n=10) was treated with p.o. vehicle, followed by i.p. injection of 50 ng of mouse TNFα after one h. A naïve, non-treated control group of mice (n=10) was included in the study. […] Plasma levels of olinciguat were determined by LCMS. Plasma samples were diluted 1:300 for determination of sL-selectin, sP-selectin, sE-selectin, and sICAM-1 by ELISA.
(§2) In the vascular inflammation model, data were analyzed by one-way ANOVA, followed by Dunnett's multiple comparison to the TNFα-vehicle control.

[3] = tested on: C57BL/6 mice treated with TNFα; assay: Mouse TNFα-induced model of vascular inflammation; format: in vivo; settings: 10 mg/kg, total plasma concentration x 1.7% free
Experimental: as §1, §2

In the case of `NC(=O)[C@](O)(CNc1nc(-c2cc(-c3ccon3)n(Cc3ccccc3F)n2)ncc1F)C(F)(F)F` [olinciguat, (R)-3,3,3-trifluoro-2-(((5-fluoro-2-(1-(2-fluorobenzyl)-5-(isoxazol-3-yl)-1H-pyrazol-3-yl)pyrimidin-4-yl)amino)methyl)-2-hydroxypropanamide], the “administered dose radioactivity recovered in feces and urine within the first 48 h” value [1] is reported as 95%, the “equivalents excreted in the urine, percent of administered dose” value ([1]; over 7 days) is reported as 5.7% and the “equivalents excreted in the feces, percent of administered dose” value ([1]; over 7 days) is reported as over 95%. For the same compound, the “equivalents excreted in the feces, percent of administered dose” value ([1]; over 7 days, listed as [^14C]-olinciguat) was 95.3%, the concentration at 5 h [2] was 544 ± 61 nM and the “Olinciguat concentration (free)” value [3] was 8.2–10.2 nM^f.
